From US6110481A, “Controlled release device based on aqueous-organic partitioning in porous membranes” (Trustees of the Stevens Institute of Technology, priority 1994, dated 2000)

Columns and labels:
[1] = from Reid et al., 1977, p. 576; cited from earlier work
[2] = Distribution coefficient of benzoic acid between decanol and water; assay type: physicochemical
Text: Analytical solutions for non-coated, wetted fibers and for non-coated, non-wetted fibers were developed to predict the aqueous phase benzoic acid concentration as a function of time for nylon fibers as well as Celgard® X-20 […] and 400 μm I.D. fibers, both wetted and non-wetted. Predicted results were compared with experimental data (for wetted fibers only) in FIGS. 1, 2 and 3 for Celgard® X-20 240 μm I.D., Celgard® X-20 400 μm I.D. and Nylon 6 600 μm I.D. fibers, respectively. The hollow fiber dimensions and membrane porosities were supplied by the manufacturer. In the case of the silicone coated fibers, the coating thickness was estimated experimentally. The diffusivity of benzoic acid in decanol was estimated using the Wilke-Chang Equation. The diffusivity of benzoic acid in water was taken from Reid et al., Properties of Gases and Liquids, McGraw Hill Book Co., New York, 1977. […]
Aqueous phase benzoic acid concentration was analyzed by a Hewlett-Packard HPLC model 1090, using a Hypersil ODS C-18 reverse phase column. […] The distribution coefficient of benzoic acid between decanol and water was determined experimentally.

[3] = In vitro release from microporous hollow fibers into stirred water bath; assay type: physicochemical; conditions: 1 μm silicone-coated 240 μm Celgard fibers (with and without wax coating), octanol; experimental vs predicted for uncoated fibers
Protocol: Hollow fibers prepared as such may then be assembled in any fashion intended for controlled release purposes. Preliminary testing of the release kinetics of a selected agent is carried out by immersing a length of the hollow fiber with sealed ends in a stirred water bath and measuring the concentration of the agent in the water bath as it increased with time.
A coating on the outer surface of the fiber provides additional resistance to mass transfer. […] The controlled release of benzoic acid using silicone-coatedhollow fibers (with and without an additional wax coating) and octanol is shown in FIGS. 4A and 4B. For both Figures, the predicted results are based on a 240 μm uncoated fiber with the same membrane thickness, porosity and tortuosity. In FIG. 4A, a 240 μm Celgard® fiber was coated with a 1 μm silicone coating. In FIG. 4B, a 240 μm Celgard® fiber was coated with a 1 μm silicone coating, and an additional wax coating. In both experiments, the solvent was octanol and the diffusing species, benzoic acid.
Aqueous phase benzoic acid concentration was analyzed by a Hewlett-Packard HPLC model 1090, using a Hypersil ODS C-18 reverse phase column. A 40% acetonitrile -60% water (w/w) carrier and UV detector at 254 nm were used. The samples were injected manually into a […] sample loop. […] The distribution coefficient of benzoic acid between decanol and water was determined experimentally. […]

[4] = glassy hydrogel matrix, solvent activation system; cited from earlier work

Compound	diffusion coefficient in water [1]	distribution coefficient (m), ratio of equilibrium solute concentration in organic solvent over that in water [2]	effect of fiber coating on time to approach steady state [3]	release kinetics [4]
O=C(O)c1ccccc1 [benzoic acid]	1.2 × 10^-5 cm^2 /s	~50	increases the time required for the system to approach steady state	zero order release kinetics
Cn1c(=O)c2[nH]cnc2n(C)c1=O [theophylline]				zero order release kinetics
